Columns and labels:
SK2 = molecular target: T1, SK2 (Homo sapiens, UniProt Q9NRA0); assay: SK2 activity assay (Adapta screening system); settings: read-out: SK2 inhibitory efficacy
T1 sequence (Q9NRA0 1-654): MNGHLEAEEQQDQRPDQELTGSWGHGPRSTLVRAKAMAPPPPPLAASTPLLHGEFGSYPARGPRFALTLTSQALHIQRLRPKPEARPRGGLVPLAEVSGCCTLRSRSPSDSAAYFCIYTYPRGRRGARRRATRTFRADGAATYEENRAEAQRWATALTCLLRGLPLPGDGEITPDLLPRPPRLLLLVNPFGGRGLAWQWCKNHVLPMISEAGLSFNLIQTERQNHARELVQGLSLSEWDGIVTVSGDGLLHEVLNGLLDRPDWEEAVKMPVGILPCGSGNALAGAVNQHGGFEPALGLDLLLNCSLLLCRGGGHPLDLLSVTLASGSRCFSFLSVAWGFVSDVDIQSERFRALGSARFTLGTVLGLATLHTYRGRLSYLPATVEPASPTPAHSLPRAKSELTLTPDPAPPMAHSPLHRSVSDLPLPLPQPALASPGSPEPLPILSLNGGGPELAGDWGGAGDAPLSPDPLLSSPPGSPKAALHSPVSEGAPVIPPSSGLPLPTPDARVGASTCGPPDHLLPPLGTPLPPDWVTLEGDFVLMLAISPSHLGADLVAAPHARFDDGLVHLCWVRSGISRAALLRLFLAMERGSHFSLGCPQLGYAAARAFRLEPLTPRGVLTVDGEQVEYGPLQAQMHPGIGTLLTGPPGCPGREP

A549 and H1299 cells = assay: Cell proliferation / viability assay (EZ-CYTOX)
[1] = In vitro metabolic stability, dog liver microsomes; assay type: in vitro ADME; settings: pooled liver microsomes, NADPH, 37 °C, 0 and 30 min
A549 cells [2] = assay: Cytotoxicity after SK1/SK2 siRNA transfection; assay type: cell-based, human; settings: A549 cells transfected with siSK1, siSK2; 24 h
Protocol: Control small interfering RNA (siControl) was obtained from Bioneer (Daejeon, Korea), while SK1 (sc-44114) and SK2 (sc-39225) siRNA (siSK1 and siSK2) were purchased from Santa Cruz Biotechnology (Dallas, TX, USA). Cells were transfected using Lipofectamine RNAiMAX Reagent (Invitrogen, Carlsbad, CA, USA) according to the manufacturer’s instructions. Transfection efficiency was monitored by Western blot. After 24 h of infection, cytotoxicity was measured using infected cells.

A549 cells [3] = assay: SK1 and SK2 protein (Western blotting) and mRNA (qRT-PCR) levels; assay type: cell-based, human; settings: 5 and 10 μM, 24 h
Protocol: Western blotting measured changes in apoptosis-related proteins (PARP, BAX, BCL-2, Caspase-3). A549 cells (1 × 10^6 cells per well in 6-well plates) were incubated for 24 h. Cells were treated with concentrations of the compounds and incubated for 24 h. Then, cells were dissolved on ice for two hours with a lysis buffer containing a mixture of protease and phosphatase inhibitors. The lysate was centrifuged at 12,000× g for 15 min at 4 °C, and the supernatant was collected. Protein concentrations were measured using a bicinchoninic acid protein assay kit. Total protein was separated by 8–10% sodium dodecyl sulfate–polyacrylamide gel electrophoresis (SDS-PAGE) and transferred onto polyvinylidene fluoride (PVDF) membranes. After being blocked with 5% skim milk, membranes were probed overnight at 4 °C with primary antibodies against SK1, SK2, PARP, BAX, Bcl-2, Caspase-3, and β-actin. Then, the membranes were incubated with subsequent secondary antibodies at room temperature. Then, the protein expressions were measured by Amersham Imager 680 (GE Healthcare, Leiden, WZ, The Netherlands).
RNAs were isolated using the Trizol/chloroform reagent (Invitrogen, Waltham, MA, USA). […] For quantitative analysis of various genes, qRT-PCR was performed using the Bio-Rad CFX384 Touch Real-time PCR detection system (Bio-Rad, Hercules, CA, USA) with SYBR Premix Ex Taq (Takara Bio, Shiga, Japan) for 40 cycles.

Compound: Cc1cc(CN(Cc2cc(C)cc(CS(=O)(=O)c3ccccc3)c2)c2ccc(CCN3CCC(CO)CC3)cc2)cc(CS(=O)(=O)c2ccccc2)c1 [Compound 4, (1-(4-(Bis(3-methyl-5-((phenylsulfonyl)methyl)benzyl)amino)phenethyl)piperidin-4-yl)methanol]
- inhibition at 10 µM (SK2): 49%
- cytotoxic effects compared with FTY720 (A549 and H1299 cells; 20 and 40 μM, A549 and H1299 cells): cytotoxic effects similar to those of FTY720
- IC50 (A549 and H1299 cells; Homo sapiens, 24 h, read-out: IC50 (cytotoxic effect)): 7.75 µM
- MS DLM [1]: 26.1
- dependence of cytotoxic efficacy on SK1/SK2 (siRNA knockdown) (A549 cells [2]): more dependent on SK1, although SK2 is also partially involved
- expression of proteins and mRNAs of SK1 and SK2 (A549 cells [3]): did not affect
